Measurements from PubChem BioAssay (NCI).
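Protocol summary: plate cells (96-well), add compound at 5 concentrations, incubate 48 h, interpolate endpoints linearly. GI50: concentration for 50% inhibition of growth. TGI marks complete inhibition of growth.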

What was measured:
Test in all cases: NCI-60 cell line screen, 48 h
HL-60(TB) leukemia = system: HL-60(TB) leukemia
TK-10 renal = system: TK-10 renal
HCT-15 colon = system: HCT-15 colon
U251 CNS = system: U251 CNS
OVCAR-5 ovarian = system: OVCAR-5 ovarian
OVCAR-3 ovarian = system: OVCAR-3 ovarian
SK-OV-3 ovarian = system: SK-OV-3 ovarian
OVCAR-8 ovarian = system: OVCAR-8 ovarian
RPMI-8226 leukemia = system: RPMI-8226 leukemia
SF-539 CNS = system: SF-539 CNS
SNB-75 CNS = system: SNB-75 CNS
SR leukemia = system: SR leukemia
KM12 colon = system: KM12 colon
OVCAR-4 ovarian = system: OVCAR-4 ovarian
RXF 393 renal = system: RXF 393 renal
SK-MEL-2 melanoma = system: SK-MEL-2 melanoma
HS 578T breast = system: HS 578T breast
HOP-62 NSCLC = system: HOP-62 NSCLC
SW-620 colon = system: SW-620 colon
HCC-2998 colon = system: HCC-2998 colon
SF-295 CNS = system: SF-295 CNS
ACHN renal = system: ACHN renal
HT29 colon = system: HT29 colon
NCI/ADR-RES ovarian = system: NCI/ADR-RES ovarian
MDA-MB-435 = system: MDA-MB-435
SNB-19 CNS = system: SNB-19 CNS
EKVX NSCLC = system: EKVX NSCLC
A549 NSCLC = system: A549 NSCLC
UACC-257 melanoma = system: UACC-257 melanoma
PC-3 prostate = system: PC-3 prostate
K-562 leukemia = system: K-562 leukemia
HOP-92 NSCLC = system: HOP-92 NSCLC
NCI-H226 lung = system: NCI-H226 lung
IGROV1 ovarian = system: IGROV1 ovarian
M14 melanoma = system: M14 melanoma
CCRF-CEM leukemia = system: CCRF-CEM leukemia
SF-268 CNS = system: SF-268 CNS
MOLT-4 leukemia = system: MOLT-4 leukemia
NCI-H460 lung = system: NCI-H460 lung
SK-MEL-28 melanoma = system: SK-MEL-28 melanoma
MCF7 breast = system: MCF7 breast
HCT-116 colon = system: HCT-116 colon
CAKI-1 renal = system: CAKI-1 renal
UO-31 renal = system: UO-31 renal
DU-145 prostate = system: DU-145 prostate
A498 renal = system: A498 renal
COLO 205 colon = system: COLO 205 colon
NCI-H23 lung = system: NCI-H23 lung
786-0 renal = system: 786-0 renal
T-47D breast = system: T-47D breast
MALME-3M melanoma = system: MALME-3M melanoma
UACC-62 melanoma = system: UACC-62 melanoma
MDA-MB-231 breast = system: MDA-MB-231 breast
SN12C renal = system: SN12C renal
SK-MEL-5 melanoma = system: SK-MEL-5 melanoma
BT-549 breast = system: BT-549 breast
LOX IMVI melanoma = system: LOX IMVI melanoma
NCI-H522 lung = system: NCI-H522 lung

COc1ccc(C2=N/C(=C\c3ccccc3)C(=O)O2)cc1
TGI (HL-60(TB) leukemia): 31 µM
TGI (TK-10 renal): > 100 µM
TGI (HCT-15 colon): > 100 µM
TGI (U251 CNS): > 100 µM
TGI (OVCAR-5 ovarian): > 100 µM
TGI (OVCAR-3 ovarian): > 100 µM
TGI (SK-OV-3 ovarian): > 100 µM
TGI (OVCAR-8 ovarian): > 100 µM
TGI (RPMI-8226 leukemia): > 100 µM
TGI (SF-539 CNS): > 100 µM
TGI (SNB-75 CNS): > 100 µM
TGI (SR leukemia): 57.5 µM
TGI (KM12 colon): > 100 µM
TGI (OVCAR-4 ovarian): > 100 µM
TGI (RXF 393 renal): > 100 µM
TGI (SK-MEL-2 melanoma): > 100 µM
TGI (HS 578T breast): > 100 µM
TGI (HOP-62 NSCLC): > 100 µM
TGI (SW-620 colon): > 100 µM
TGI (HCC-2998 colon): > 100 µM
TGI (SF-295 CNS): > 100 µM
TGI (ACHN renal): > 100 µM
TGI (HT29 colon): > 100 µM
TGI (NCI/ADR-RES ovarian): 43.4 µM
TGI (MDA-MB-435): > 100 µM
TGI (SNB-19 CNS): > 100 µM
TGI (EKVX NSCLC): > 100 µM
TGI (A549 NSCLC): > 100 µM
TGI (UACC-257 melanoma): > 100 µM
TGI (PC-3 prostate): > 100 µM
TGI (K-562 leukemia): > 100 µM
TGI (HOP-92 NSCLC): > 100 µM
TGI (NCI-H226 lung): 98.1 µM
TGI (IGROV1 ovarian): > 100 µM
TGI (M14 melanoma): > 100 µM
TGI (CCRF-CEM leukemia): > 100 µM
TGI (SF-268 CNS): > 100 µM
TGI (MOLT-4 leukemia): 52.6 µM
TGI (NCI-H460 lung): > 100 µM
TGI (SK-MEL-28 melanoma): > 100 µM
TGI (MCF7 breast): > 100 µM

O=C(O)C1CC[N-]CC1.O=C(O)C1CC[N-]CC1.[Cl][Pt+2]([Cl])([Cl])[Cl]
GI50 (RXF 393 renal): 34.2 µM

OC(c1cc(-c2ccc(C(F)(F)F)cc2)nc(-c2ccc(C(F)(F)F)cc2)c1)C1CCCCN1 (stereo not drawn)
GI50 (HCT-116 colon): 1.66 µM
TGI (HCT-116 colon): 3.18 µM
GI50 (HL-60(TB) leukemia): 2.05 µM
TGI (HL-60(TB) leukemia): 3.88 µM
GI50 (TK-10 renal): 1.82 µM
TGI (TK-10 renal): 3.28 µM
GI50 (U251 CNS): 1.71 µM
TGI (U251 CNS): 3.32 µM
GI50 (OVCAR-5 ovarian): 1.58 µM
TGI (OVCAR-5 ovarian): 3.06 µM
GI50 (OVCAR-3 ovarian): 1.78 µM
TGI (OVCAR-3 ovarian): 3.25 µM
GI50 (CAKI-1 renal): 1.89 µM
TGI (CAKI-1 renal): 3.79 µM
GI50 (UO-31 renal): 1.56 µM
TGI (UO-31 renal): 3.3 µM
GI50 (OVCAR-8 ovarian): 1.47 µM
TGI (OVCAR-8 ovarian): 3.1 µM
GI50 (DU-145 prostate): 1.78 µM
TGI (DU-145 prostate): 3.16 µM
GI50 (A498 renal): 1.56 µM
TGI (A498 renal): 2.96 µM
GI50 (HS 578T breast): 1.47 µM
TGI (HS 578T breast): 3.2 µM
GI50 (SF-295 CNS): 1.75 µM
TGI (SF-295 CNS): 3.33 µM
GI50 (HT29 colon): 1.62 µM
TGI (HT29 colon): 3.09 µM
GI50 (A549 NSCLC): 1.72 µM
TGI (A549 NSCLC): 3.28 µM
GI50 (IGROV1 ovarian): 1.83 µM
TGI (IGROV1 ovarian): 3.67 µM
GI50 (COLO 205 colon): 0.893 µM
TGI (COLO 205 colon): 2.1 µM
GI50 (NCI-H460 lung): 1.62 µM
TGI (NCI-H460 lung): 3.08 µM

C=C1C(=O)O[C@H]2[C@H]1CC/C(COC(=O)c1c[nH]c3ccccc13)=C\CC[C@@]1(C)O[C@@H]21
GI50 (HCT-116 colon): 0.193 µM
TGI (HCT-116 colon): 0.459 µM
GI50 (HL-60(TB) leukemia): 0.278 µM
TGI (HL-60(TB) leukemia): 0.789 µM
GI50 (TK-10 renal): 0.28 µM
TGI (TK-10 renal): 0.736 µM
GI50 (HCT-15 colon): 0.258 µM
TGI (HCT-15 colon): 0.773 µM
GI50 (U251 CNS): 0.616 µM
TGI (U251 CNS): 1.93 µM
GI50 (NCI-H23 lung): 1.29 µM
TGI (NCI-H23 lung): 3.76 µM
GI50 (OVCAR-5 ovarian): 0.405 µM
TGI (OVCAR-5 ovarian): 2.1 µM
GI50 (786-0 renal): 0.326 µM
TGI (786-0 renal): 1.13 µM
GI50 (OVCAR-3 ovarian): 0.207 µM
TGI (OVCAR-3 ovarian): 0.483 µM
GI50 (SK-OV-3 ovarian): 2.24 µM
TGI (SK-OV-3 ovarian): 5.59 µM
GI50 (UO-31 renal): 0.165 µM
TGI (UO-31 renal): 0.313 µM
GI50 (OVCAR-8 ovarian): 0.282 µM
TGI (OVCAR-8 ovarian): 1.03 µM
GI50 (DU-145 prostate): 0.383 µM
TGI (DU-145 prostate): 1.4 µM
GI50 (RPMI-8226 leukemia): 0.0404 µM
TGI (RPMI-8226 leukemia): 0.281 µM
GI50 (T-47D breast): 0.401 µM
TGI (T-47D breast): 2.26 µM
GI50 (SF-539 CNS): 0.264 µM
TGI (SF-539 CNS): 1 µM
GI50 (MALME-3M melanoma): 0.324 µM
TGI (MALME-3M melanoma): 1.27 µM
GI50 (SNB-75 CNS): 0.207 µM
TGI (SNB-75 CNS): 0.923 µM
GI50 (A498 renal): 0.267 µM
TGI (A498 renal): 1.03 µM
GI50 (SR leukemia): 0.285 µM
TGI (SR leukemia): 1.33 µM
GI50 (KM12 colon): 0.477 µM
TGI (KM12 colon): 2.36 µM
GI50 (OVCAR-4 ovarian): 0.258 µM
TGI (OVCAR-4 ovarian): 0.842 µM
GI50 (RXF 393 renal): 0.19 µM
TGI (RXF 393 renal): 0.391 µM
GI50 (UACC-62 melanoma): 0.185 µM
TGI (UACC-62 melanoma): 0.388 µM
GI50 (SK-MEL-2 melanoma): 0.239 µM
TGI (SK-MEL-2 melanoma): 0.612 µM
GI50 (HS 578T breast): 0.613 µM
TGI (HS 578T breast): 6.83 µM
GI50 (HOP-62 NSCLC): 0.825 µM
TGI (HOP-62 NSCLC): 2.41 µM
GI50 (SW-620 colon): 0.234 µM
TGI (SW-620 colon): 0.752 µM
GI50 (MDA-MB-231 breast): 0.197 µM
TGI (MDA-MB-231 breast): 0.447 µM
GI50 (HCC-2998 colon): 0.32 µM
TGI (HCC-2998 colon): 1.08 µM
GI50 (SF-295 CNS): 1.94 µM
TGI (SF-295 CNS): 4.47 µM
GI50 (ACHN renal): 0.215 µM
TGI (ACHN renal): 0.592 µM
GI50 (HT29 colon): 0.249 µM
TGI (HT29 colon): 0.58 µM
GI50 (NCI/ADR-RES ovarian): 0.397 µM
TGI (NCI/ADR-RES ovarian): 11 µM
GI50 (SN12C renal): 0.237 µM
TGI (SN12C renal): 0.623 µM
GI50 (MDA-MB-435): 0.242 µM
TGI (MDA-MB-435): 0.654 µM
GI50 (SNB-19 CNS): 1.3 µM
TGI (SNB-19 CNS): 2.91 µM
GI50 (EKVX NSCLC): 0.315 µM
TGI (EKVX NSCLC): 2.01 µM
GI50 (A549 NSCLC): 1.5 µM
TGI (A549 NSCLC): 3.3 µM
GI50 (UACC-257 melanoma): 0.368 µM
TGI (UACC-257 melanoma): 1.49 µM
GI50 (PC-3 prostate): 0.384 µM
TGI (PC-3 prostate): 2.03 µM
GI50 (K-562 leukemia): 0.279 µM
TGI (K-562 leukemia): 1.62 µM
GI50 (HOP-92 NSCLC): 0.169 µM
TGI (HOP-92 NSCLC): 0.45 µM
GI50 (NCI-H226 lung): 0.445 µM
TGI (NCI-H226 lung): 1.96 µM
GI50 (COLO 205 colon): 0.244 µM
TGI (COLO 205 colon): 0.663 µM
GI50 (SK-MEL-5 melanoma): 0.204 µM
TGI (SK-MEL-5 melanoma): 0.499 µM
GI50 (M14 melanoma): 0.229 µM
TGI (M14 melanoma): 0.651 µM
GI50 (CCRF-CEM leukemia): 0.058 µM
TGI (CCRF-CEM leukemia): 0.972 µM
GI50 (SF-268 CNS): 0.294 µM
TGI (SF-268 CNS): 1.07 µM
GI50 (MOLT-4 leukemia): 0.282 µM
TGI (MOLT-4 leukemia): 1.45 µM
GI50 (NCI-H460 lung): 1.1 µM
TGI (NCI-H460 lung): 3.18 µM
GI50 (SK-MEL-28 melanoma): 0.367 µM
TGI (SK-MEL-28 melanoma): 1.41 µM
GI50 (BT-549 breast): 0.175 µM
TGI (BT-549 breast): 0.414 µM
GI50 (LOX IMVI melanoma): 0.0471 µM
TGI (LOX IMVI melanoma): 0.312 µM
GI50 (NCI-H522 lung): 0.194 µM
TGI (NCI-H522 lung): 0.412 µM
